# Numbered stars: 1 amine (or outer) side, 2 acyl side, 3 side chain; on linkers, the order of the positions; unused ones are H or OH. Bridge positions count the residues as written; N and C are the ends. Side chains are listed from the residue outwards. Peptide text beside a SMILES is read from it. * marks the point of attachment. C20 diacid = O=C(O)CCCCCCCCCCCCCCCCCCC(=O)*; γGlu = O=C(O)[C@H](CCC(=O)[*:2])N[*:1]
# How the values were obtained:
# [1] = biological target: T1, human amylin receptor (membranes from Amylin 3(a)/CRE-luc cells) (Homo sapiens, UniProt O60896+P30988); test: ASSAY (V) binding to the human amylin receptor (SPA, 125I-rat amylin);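 further: competition binding of cell membranes (35 ng/µL) mixed with SPA beads in 384-well plates at 40 µL total volume, read by scintillation counting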
# T1 construct: expressed in transfected cells
# T1 sequence (P30988 25-474): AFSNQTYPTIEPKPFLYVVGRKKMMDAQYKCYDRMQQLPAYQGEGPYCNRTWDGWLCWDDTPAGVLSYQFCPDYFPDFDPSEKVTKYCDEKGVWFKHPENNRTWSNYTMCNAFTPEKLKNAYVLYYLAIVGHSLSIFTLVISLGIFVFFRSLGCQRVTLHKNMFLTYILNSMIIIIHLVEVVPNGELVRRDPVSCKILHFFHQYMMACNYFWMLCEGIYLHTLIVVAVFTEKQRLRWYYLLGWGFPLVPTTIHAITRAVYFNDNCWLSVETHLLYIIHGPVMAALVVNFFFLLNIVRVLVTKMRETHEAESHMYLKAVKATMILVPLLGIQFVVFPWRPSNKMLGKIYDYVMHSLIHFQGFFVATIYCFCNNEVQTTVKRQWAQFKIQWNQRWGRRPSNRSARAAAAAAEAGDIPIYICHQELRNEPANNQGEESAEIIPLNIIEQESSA
# T1 sequence (O60896 24-148 partner): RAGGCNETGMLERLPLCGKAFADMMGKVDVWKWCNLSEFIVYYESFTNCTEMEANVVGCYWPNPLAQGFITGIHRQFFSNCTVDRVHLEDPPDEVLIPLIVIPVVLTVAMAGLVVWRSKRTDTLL
# [2] = biological target: T2, rat amylin receptor (rat calcitonin receptor + rat RAMP 3) (Rattus norvegicus, UniProt P32214+Q9JJ73); test: ASSAY (VI) binding to the rat amylin receptor; conditions: for IC50: binding to rat amylin receptor, read-out: rAmylin-R bind IC50
# T2 construct: expressed in transfected cells; host or cells: BHK tk'ts 13 (transient, FuGENE 6), membranes
# T2 sequence (P32214 25-479 isoform P32214-2 limits assumed): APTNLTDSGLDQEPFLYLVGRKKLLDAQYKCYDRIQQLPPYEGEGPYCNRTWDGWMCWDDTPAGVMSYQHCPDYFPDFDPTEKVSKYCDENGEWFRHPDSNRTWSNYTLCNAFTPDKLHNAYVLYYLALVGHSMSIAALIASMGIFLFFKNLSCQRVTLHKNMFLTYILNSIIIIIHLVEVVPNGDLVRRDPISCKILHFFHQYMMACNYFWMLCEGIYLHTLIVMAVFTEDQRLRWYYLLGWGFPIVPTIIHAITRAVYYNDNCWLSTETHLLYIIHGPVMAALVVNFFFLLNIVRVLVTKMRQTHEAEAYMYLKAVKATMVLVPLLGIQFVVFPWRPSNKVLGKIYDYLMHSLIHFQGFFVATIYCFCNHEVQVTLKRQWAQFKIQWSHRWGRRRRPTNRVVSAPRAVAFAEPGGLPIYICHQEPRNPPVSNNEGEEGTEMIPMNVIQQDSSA
# T2 sequence (Q9JJ73 23-147 partner): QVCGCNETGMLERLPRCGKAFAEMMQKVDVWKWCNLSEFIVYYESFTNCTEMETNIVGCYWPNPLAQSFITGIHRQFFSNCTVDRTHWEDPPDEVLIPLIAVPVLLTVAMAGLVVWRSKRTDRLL
# Summary of the method: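 This assay measured binding to the rat amylin receptor. BHK tk′ts 13 cells were transiently transfected with the rat calcitonin receptor using FuGENE® 6 (Roche), following the manufacturer's recommendations. About 48 hours after transfection, the cells were harvested and membranes were prepared from them for the binding determination.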
# [3] = biological target: T3, human amylin 3(a) receptor (human calcitonin receptor + RAMP-3) in BHK570 cells (Homo sapiens, UniProt O60896+P30988); test: ASSAY (II)a functional assay, human amylin receptor (CRE luciferase); type: cell-based
# T3 construct: expressed in transfected cells
# Summary of the method: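 BHK CRE-luc cells, calcitonin (a) receptor ± RAMP-3 (amylin 3(a)); overnight seeding, 37° C/5% CO2. 3 h ligand exposure, DMEM/10% FBS/10 mM Hepes pH 7.4. LucLite 30 min RT; luminescence (SPC).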
# rat calcitonin receptor = biological target: T4, rat calcitonin receptor (Rattus norvegicus, UniProt P32214); test: ASSAY (VIII) binding to the rat calcitonin receptor; conditions: Table 7, read-out: rCTR bind IC50
# T4 construct: expressed in transfected cells; host or cells: BHK tk'ts 13 (transient, FuGENE 6), membranes
# T4 sequence (P32214 25-479 isoform P32214-2 limits assumed): T2 sequence (P32214 25-479 isoform P32214-2 limits assumed)
# Summary of the method: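 Transfect BHK tk′ts 13 cells transiently with rat calcitonin receptor, culture in DMEM containing 10% FBS, collect cells about 48 hours later, then prepare membranes.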
# [4] = ASSAY (X) pK, determination of T½ in rat; type: in vivo; conditions: male, Sprague Dawley, plasma, iv, 20 nmol/kg
# [5] = Table 5, selectivity, hCTR bind IC50 / hAmylin-R bind IC50
# [6] = Table 5a, selectivity, hCTR bind IC50 / hAmylin-R bind IC50
# [7] = Table 5b, selectivity, hCTR bind IC50 / hAmylin-R bind IC50
# [8] = Table 5c, selectivity, hCTR bind IC50 / hAmylin-R bind IC50
# [9] = Table 7, human binding selectivity, included for comparison
# [10] = Table 7a (preferred compounds), human binding selectivity, included for comparison
# [11] = ratio of human calcitonin receptor binding IC50 to human amylin receptor binding IC50
# [12] = Table 7, rat binding selectivity, rCTR IC50 / rAmylin-R IC50
# [13] = Table 7a (preferred compounds), rat binding selectivity, rCTR IC50 / rAmylin-R IC50
# [14] = ratio of rCTR bind IC50 to rAmylin-R bind IC50
# [15] = hCTR funct. EC50 divided by hAmylin-R funct. EC50
# [16] = hCTR funct. EC50 over hAmylin-R funct. EC50
# [17] = human functional selectivity: hCTR funct. EC50 / hAmylin-R funct. EC50
Compound,"Ratio hCT/hAmylin binding [1, 5]","Ratio hCT/hAmylin binding [1, 6]","Ratio hCT/hAmylin binding [1, 7]","Ratio hCT/hAmylin binding [1, 8]","Ratio hCT/hAmylin binding [1, 9]","Ratio hCT/hAmylin binding [1, 10]","Ratio hCT/hAmylin binding [1, 11]",IC50 ([2]; Table 7),"Ratio rCT/rAmylin binding [2, 12]","Ratio rCT/rAmylin binding [2, 13]","Ratio rCT/rAmylin binding [2, 14]","Ratio hCT/hAmylin funct. [3, 15]","Ratio hCT/hAmylin funct. [3, 16]","Ratio hCT/hAmylin funct. [3, 17]",IC50 (rat calcitonin receptor),half-life [4]
"CC[C@H](C)[C@H](NC(=O)[C@H](C)NC(=O)CNC(=O)[C@H](Cc1ccccc1)NC(=O)[C@H](CC(N)=O)NC(=O)[C@@H]1CCCN1C(=O)[C@H](CO)NC(=O)[C@H](CO)NC(=O)[C@H](Cc1c[nH]cn1)NC(=O)[C@H](CCCNC(=N)N)NC(=O)[C@H](CC(C)C)NC(=O)[C@H](Cc1ccccc1)NC(=O)[C@H](CC(=O)O)NC(=O)[C@H](C)NC(=O)[C@H](CC(C)C)NC(=O)[C@H](CCCNC(=N)N)NC(=O)[C@H](CCC(N)=O)NC(=O)[C@@H](NC(=O)[C@H](C)NC(=O)[C@@H]1CSSC[C@H](NC(=O)[C@@H](N)CCCCNC(=O)CC[C@H](NC(=O)CC[C@H](NC(=O)CCCCCCCCCCCCCCCCCCC(=O)O)C(=O)O)C(=O)O)C(=O)N[C@@H](CC(N)=O)C(=O)N[C@@H]([C@@H](C)O)C(=O)N[C@@H](C)C(=O)N[C@@H]([C@@H](C)O)C(=O)N1)[C@@H](C)O)C(=O)N1CCC[C@H]1C(=O)N[C@@H](CO)C(=O)N[C@@H](CO)C(=O)N[C@H](C(=O)N[C@@H](CC(N)=O)C(=O)N[C@H](C(=O)NCC(=O)N[C@@H](CO)C(=O)N[C@@H](CCCNC(=N)N)C(=O)N[C@H](C(=O)N[C@@H](Cc1ccc(O)cc1)C(N)=O)[C@@H](C)O)C(C)C)[C@@H](C)O [Example 52, N-ε-1-{(S)-4-carboxy-4-[(S)-4-carboxy-4-(19-carboxynonadecanoylamino)butyrylamino]butyryl}-[Asp14,Arg17,Pro21,Pro27,Arg35]-human amylin]",81.6,81.6,81.6,81.6,81.6,81.6,81.6,0.335 nM,476.7,476.7,476.7,41.4,41.4,41.4,159 nM,21 h
CC[C@H](C)[C@H](NC(=O)[C@H](C)NC(=O)CNC(=O)[C@H](Cc1ccccc1)NC(=O)[C@H](CC(N)=O)NC(=O)[C@@H]1CCCN1C(=O)[C@H](CO)NC(=O)[C@H](CO)NC(=O)[C@H](Cc1c[nH]cn1)NC(=O)[C@H](CCCNC(=N)N)NC(=O)[C@H](CC(C)C)NC(=O)[C@H](Cc1ccccc1)NC(=O)[C@H](Cc1c[nH]cn1)NC(=O)[C@H](C)NC(=O)[C@H](CC(C)C)NC(=O)[C@H](CCCNC(=N)N)NC(=O)[C@H](CCC(N)=O)NC(=O)[C@@H](NC(=O)[C@H](C)NC(=O)[C@@H]1CSSC[C@H](NC(=O)[C@@H](N)CCCCNC(=O)CC[C@H](NC(=O)CCCCCCCCCCCCCCCCCCC(=O)O)C(=O)O)C(=O)N[C@@H](CC(N)=O)C(=O)N[C@@H]([C@@H](C)O)C(=O)N[C@@H](C)C(=O)N[C@@H]([C@@H](C)O)C(=O)N1)[C@@H](C)O)C(=O)N1CCC[C@H]1C(=O)N[C@@H](CO)C(=O)N[C@@H](CO)C(=O)N[C@H](C(=O)N[C@@H](CC(N)=O)C(=O)N[C@H](C(=O)NCC(=O)N1CCC[C@H]1C(=O)N[C@@H](CC(N)=O)C(=O)N[C@H](C(=O)N[C@@H](Cc1ccc(O)cc1)C(N)=O)[C@@H](C)O)C(C)C)[C@@H](C)O [Example 67] (H-K([γGlu-C20 diacid])CNTATCATQRLAHFLRHSSPNFGAIPSSTNVGPNTY-NH2; disulfide 2-7 (inferred); N-terminus assumed),51.6,51.6,51.6,51.6,51.6,51.6,51.6,0.172 nM,85.4,85.4,85.4,5.2,–,5.2,14.7 nM,7 h
CC[C@H](C)[C@H](NC(=O)[C@H](C)NC(=O)CNC(=O)[C@H](Cc1ccccc1)NC(=O)[C@H](CC(N)=O)NC(=O)[C@@H]1CCCN1C(=O)[C@H](CO)NC(=O)[C@H](CO)NC(=O)[C@H](Cc1c[nH]cn1)NC(=O)[C@H](CCCNC(=N)N)NC(=O)[C@H](CC(C)C)NC(=O)[C@H](Cc1ccccc1)NC(=O)[C@H](CC(N)=O)NC(=O)[C@H](C)NC(=O)[C@H](CC(C)C)NC(=O)[C@H](CCCNC(=N)N)NC(=O)[C@H](CCC(N)=O)NC(=O)[C@@H](NC(=O)[C@H](C)NC(=O)[C@@H]1CSSC[C@H](NC(=O)[C@@H](N)CCCCNC(=O)CC[C@H](NC(=O)CCCCCCCCCCCCCCCCCCC(=O)O)C(=O)O)C(=O)N[C@@H](CC(N)=O)C(=O)N[C@@H]([C@@H](C)O)C(=O)N[C@@H](C)C(=O)N[C@@H]([C@@H](C)O)C(=O)N1)[C@@H](C)O)C(=O)N1CCC[C@H]1C(=O)N[C@@H](CO)C(=O)N[C@@H](CO)C(=O)N[C@H](C(=O)N[C@@H](CC(N)=O)C(=O)N[C@H](C(=O)NCC(=O)N[C@@H](Cc1c[nH]cn1)C(=O)N[C@@H](CC(N)=O)C(=O)N[C@H](C(=O)N[C@@H](Cc1ccc(O)cc1)C(N)=O)[C@@H](C)O)C(C)C)[C@@H](C)O [Example 77],118.4,118.4,118.4,118.4,118.4,118.4,118.4,1.5 nM,136.8,136.8,136.8,37.3,37.3,37.3,205 nM,18 h
